Test results from US11890287B2, “Therapeutic compounds and compositions for treating social disorders and substance use disorders” (Kinoxis Therapeutics Pty Ltd, priority 2015, dated 2024).
Where “and” joins values, the source holds several entries; their conditions need not be identical. Equal values may be shown once.

Tested on: Sprague Dawley rats
Test: Acute toxicity, single intravenous bolus dose of 50 mg/kg, one week dose range finding study
Type: in vivo
Description: The acute toxicity of SOC-1 test items was assessed in Sprague Dawley rats following intravenous administration of a single bolus dose of 50 mg/kg. A total of n=3 adult female rats were treated and then observed for 7 days prior to termination on Study Day 8 without necropsy.
The design of this acute single dose toxicity study in rats was adapted from OECD Guideline for Testing of Chemicals No. 420 Acute Oral Toxicity—Fixed Dose Procedure’ 2001 (3) and the test facility Standard Operating Procedure SP_T002 ‘Dose Range Finding Study in Rodents’. The study procedures were conducted as outlined below and according to related test facility Standard Operating Procedures.
Briefly, on completion of the acclimation period the study was commenced with administration of the treatment on Study Day 1. […] Body weights were also collected daily. On Study Day 8 the surviving animals were culled without necropsy.
The 5 mg/mL test item treatments were administered as a bolus intravenous injection in a dose volume of 10 mL/kg on Study Day 1 with restraint on conscious animals.
Morbidity and mortality observations were recorded daily during the acclimation period and on Day 8, and twice daily from Day 1 through Day 7.
Clinical observations were conducted at least once during the acclimation period. Clinical observations were conducted at least once daily from Day 1 up to and including the day prior to termination. On the day of treatment the animals were monitored continuously for the first 30 minutes post-treatment with formal observations made at 30 minutes, 1 hour and 4 hours post-treatment.
The clinical observations included examination of animals for changes in skin and fur, eyes and mucous membranes, respiratory and circulatory function, gait and posture, behaviour, tremors or convulsions and any other abnormal findings.
The clinical observations also included daily examination of the tail for any injection site reaction (for example, erythema or oedema).
Body weight was recorded once during the acclimation period and daily from the time of treatment on Day 1 to Day 8.

SMILES: Cl.Cn1ncc2c1Nc1ccccc1NC2 [SOC-1]
- body weight findings (50 mg/kg IV): no body weight findings that were considered treatment related
- clinical findings post-dose on Study Day 1 (50 mg/kg IV): mild piloerection and reduced activity levels
- injection site reactions (50 mg/kg IV): no findings of injection site reactions
- morbidity and mortality (50 mg/kg IV): no unscheduled deaths or findings of morbidity
- time to resolution of clinical findings post-dose (50 mg/kg IV): ≤ 4 h
- tolerability (50 mg/kg IV): tolerated
- vocalisation and flinch reactions at the time of dosing (50 mg/kg IV in Hartman's solution): not associated with similar reactions
- Body Weight, mean ± SD (50 mg/kg IV, Study Day 1): 224.30 ± 7.45 g
- Body weight, individual rats (50 mg/kg IV, Study Day 1): 228.4 grams and 215.7 grams and 228.8 grams
- Body Weight, mean ± SD (50 mg/kg IV, Study Day 2): 223.07 ± 4.37 g
- Body weight, individual rats (50 mg/kg IV, Study Day 2): 220.9 grams and 220.2 grams and 228.1 grams
- Body Weight, mean ± SD (50 mg/kg IV, Study Day 3): 226.87 ± 4.33 g
- Body weight, individual rats (50 mg/kg IV, Study Day 3): 225.1 grams and 223.7 grams and 231.8 grams
- Body Weight, mean ± SD (50 mg/kg IV, Study Day 4): 223.03 ± 5.34 g
- Body weight, individual rats (50 mg/kg IV, Study Day 4): 229.2 grams and 220.1 grams and 219.8 grams
- Body Weight, mean ± SD (50 mg/kg IV, Study Day 5): 222.77 ± 4.75 g
- Body weight, individual rats (50 mg/kg IV, Study Day 5): 219.0 grams and 221.2 grams and 228.1 grams
- Body Weight, mean ± SD (50 mg/kg IV, Study Day 6): 223.80 ± 3.70 g
- Body weight, individual rats (50 mg/kg IV, Study Day 6): 220.7 grams and 222.8 grams and 227.9 grams
- Body Weight, mean ± SD (50 mg/kg IV, Study Day 7): 226.60 ± 2.57 g
- Body weight, individual rats (50 mg/kg IV, Study Day 7): 225.7 grams and 224.6 grams and 229.5 grams
- Body Weight, mean ± SD (50 mg/kg IV, Study Day 8): 228.03 ± 3.81 g
- Body weight, individual rats (50 mg/kg IV, Study Day 8): 229.1 grams and 223.8 grams and 231.2 grams
- Hunched posture or gait- mild (incidence) (50 mg/kg IV, n 3): 1
- No abnormalities detected: (incidence) (50 mg/kg IV, n 3): 0
- Piloerection- mild (incidence) (50 mg/kg IV, n 3): 1
- Reduced activity (incidence) (50 mg/kg IV, n 3): 3
